# What was measured:
# [1] = target: T1, COX-1 (Ovis aries, UniProt P05979); test: COX-1 ELISA assay kit (PGHS-1 converting arachidonic acid to prostaglandins); settings: commercial anti-inflammatory drug (positive control); concentration not given
# T1 sequence (P05979 25-600): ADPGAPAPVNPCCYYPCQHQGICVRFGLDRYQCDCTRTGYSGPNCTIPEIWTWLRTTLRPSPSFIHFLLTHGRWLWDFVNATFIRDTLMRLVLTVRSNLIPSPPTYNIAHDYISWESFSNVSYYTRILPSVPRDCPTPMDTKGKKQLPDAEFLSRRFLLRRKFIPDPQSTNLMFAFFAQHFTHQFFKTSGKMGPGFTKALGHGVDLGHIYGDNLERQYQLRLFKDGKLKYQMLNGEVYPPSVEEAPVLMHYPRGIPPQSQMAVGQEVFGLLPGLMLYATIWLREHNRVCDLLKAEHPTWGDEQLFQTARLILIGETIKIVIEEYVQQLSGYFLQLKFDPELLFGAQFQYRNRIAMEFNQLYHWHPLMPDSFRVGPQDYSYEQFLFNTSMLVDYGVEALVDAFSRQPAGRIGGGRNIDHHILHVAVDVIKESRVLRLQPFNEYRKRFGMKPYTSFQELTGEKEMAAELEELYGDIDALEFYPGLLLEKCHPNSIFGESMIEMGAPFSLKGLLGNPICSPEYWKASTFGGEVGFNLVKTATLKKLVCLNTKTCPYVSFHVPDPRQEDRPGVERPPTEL
# [2] = target: T2, COX-2 (Homo sapiens, UniProt P35354); test: COX-2 ELISA assay kit (PGHS-2 converting arachidonic acid to prostaglandins)
# T2 sequence (P35354 18-604): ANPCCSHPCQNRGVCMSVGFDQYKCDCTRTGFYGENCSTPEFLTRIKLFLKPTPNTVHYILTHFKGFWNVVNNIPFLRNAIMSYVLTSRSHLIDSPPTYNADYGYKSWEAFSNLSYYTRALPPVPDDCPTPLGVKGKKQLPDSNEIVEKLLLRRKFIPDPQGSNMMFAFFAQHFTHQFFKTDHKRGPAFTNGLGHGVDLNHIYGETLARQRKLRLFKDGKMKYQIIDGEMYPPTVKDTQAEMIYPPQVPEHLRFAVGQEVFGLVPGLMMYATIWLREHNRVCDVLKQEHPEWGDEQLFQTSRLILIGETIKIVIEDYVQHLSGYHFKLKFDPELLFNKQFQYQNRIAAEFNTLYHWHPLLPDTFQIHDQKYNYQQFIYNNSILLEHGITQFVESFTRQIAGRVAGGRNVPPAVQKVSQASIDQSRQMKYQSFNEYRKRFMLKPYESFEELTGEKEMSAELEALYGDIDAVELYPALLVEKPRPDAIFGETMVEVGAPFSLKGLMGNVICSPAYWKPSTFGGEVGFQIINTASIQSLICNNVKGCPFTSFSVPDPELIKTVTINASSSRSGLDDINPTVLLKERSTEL
# Procedure: The anti-inflammatory assays for COX-2 inhibitory activity were conducted using prostaglandin endoperoxide H synthase-1 and -2 isozymes (PGHS-1, and -2) based on their ability to convert arachidonic acid to prostaglandins (PGs).
# Inhibition was measured by COX-1 and COX-2 ELISA assay kits (Cayman Chemical Co., Ann Arbor, Mich.).
smiles,measurement,setting,value
CC(=O)Oc1ccccc1C(=O)O [aspirin],inhibition of COX-1,[1],58%
same,inhibition of COX-2,[2],42%
